Test results taken from patent US20250367191A1, “TREATMENT OF MITOCHONDRIAL DISEASES WITH A CNS-PENETRANT SGC STIMULATOR ZAGOCIGUAT” (Tisento Therapeutics Inc., priority 2022, published 2025).

Experiments:
[1] = tested on: participants diagnosed with MELAS; experiment: MELAS study: cerebral blood flow by arterial spin labeling (ASL); type: in vivo, human; conditions: 15 mg QD
Procedure: Two exploratory functional neuroimaging modalities, arterial spin labeling (ASL) and functional magnetic resonance imaging (fMRI), were used to measure the potential PD effects of Compound I in the brain. While ASL quantifies regional CBF during the resting state, fMRI is a relative measure based on the blood-oxygen-level-dependent (BOLD) effect and was conducted during both a resting state and during a visual stimulus to measure brain activity.
Each individual MRI scanning session took approximately 45 minutes (maximum of ˜1 hour).
(§1) This change was observed across all brain regions of interest. Effect size throughout this disclosure is defined as the means change from baseline in a particular parameter that is being measured, divided by the standard deviation. Effect sizes closer to 1 or −1 (positive or negative dependent on the direction of movement for the specific parameter, i.e. +0.8 to +1.0 or −0.8 to −1.0) are usually considered large. Effect sizes between 0.5 and 0.8 or −0.5 and −0.8 (positive or negative dependent on the direction of movement for the specific parameter) are usually considered moderate. Effect sizes closer to below 0.5 or −0.5 (positive or negative dependent on the direction of movement for the specific parameter) are usually considered small.

[2] = tested on: participants diagnosed with MELAS; experiment: MELAS study: plasma biomarkers of mitochondrial dysfunction (lactate, GDF-15, FGF-21); type: in vivo, human
Procedure: Plasma and serum samples for biomarkers were collected from each participant. These biomarkers tested the target engagement of Compound I as well as the impact of the compound on disease. Plasma or serum samples were analyzed for concentrations of growth differentiation factor 15 (GDF-15), lactate, pyruvate, alanine, neurofilament light chain (NFL), vascular cell adhesion molecule 1, interleukin-1beta, asymmetric dimethylarginine (ADMA), L arginine, and other biomarkers relevant to the pathophysiology of mitochondrial disease, as well as their response to Compound I.
as §1

mice = mice pretreated, compared with vehicle-treated mice; cited from earlier work
[3] = plasma, trend towards reduction

Fc1ccccc1Cc1nc(-c2nc(C(F)(F)F)n[nH]2)cn2ccnc12 [Compound I, zagociguat]
CBF on day 29 compared to baseline (day 1) ([1]; ASL, all brain regions of interest): increase of CBF
patients with increased CBF between day 1 and day 29 ([1]; individual patients): 5 of the 8
participants with reductions in GDF-15 ([2]; in vivo): 4 of 8
participants with reductions in lactate ([2]; in vivo): 6 of 8
reductions in GDF-15, greatest ([2]; participants with higher baseline concentrations): up to 39%
FGF-21, effect size [2, 3]: −0.2
GDF-15, effect size [2, 3]: −0.5
Lactate concentrations, effect size [2, 3]: −0.5
rotenone-induced astrogliosis (mice): lower rotenone-induced astrogliosis
